Activity calls are given as the source filed them. No rule for the calls is given here.

The test system of this assay is Severe acute respiratory syndrome coronavirus 2. Briefly: Inhibition of SARS-CoV-2 Main protease using MCA-AVLQSGFR-Lys(Dnp)-Lys-NH2 as substrate at 5 uM preincubated for 10 mins followed by substrate addition and measured after 10 mins by FRET assay relative to control. The note with it: time 20.0 min.
Take `CC(C)(C)c1ccc(-n2cc([C@@H]3CN(C(=O)c4cccnc4)CCN3c3ccc(Cl)c(Cl)c3)nn2)cc1`: the inhibition entry was “Active”. For `O=C(Cn1cc([C@@H]2CN(C(=O)c3cccnc3)CCN2c2ccc(Cl)c(Cl)c2)nn1)Nc1ccccc1` the value was “Active”; for `O=C(c1cccnc1)N1CCN(c2ccc(Cl)c(Cl)c2)[C@H](c2cn(CS(=O)(=O)c3ccccc3)nn2)C1`, “Active”.

With `O=C(c1cccnc1)N1CCN(c2ccc(Cl)c(Cl)c2)[C@H](c2cn(Cc3cccc4ccccc34)nn2)C1`, the inhibition entry was “Active”. On to `O=C(Cn1cc([C@@H]2CN(C(=O)c3cccnc3)CCN2c2ccc(Cl)c(Cl)c2)nn1)N1CCOCC1`, for which the inhibition entry is “Active”.

Take `O=C(Cn1cc([C@@H]2CN(C(=O)c3cccnc3)CCN2c2ccc(Cl)c(Cl)c2)nn1)NC1CCC1`: the inhibition entry was “Active”. Under `COC(=O)c1cccc(-n2cc([C@@H]3CN(C(=O)c4cccnc4)CCN3c3ccc(Cl)c(Cl)c3)nn2)c1` stands “Active”; under `O=C(c1cccnc1)N1CCN(c2ccc(Cl)c(Cl)c2)[C@H](c2cn(CCCc3ccccc3)nn2)C1`, “Active”. `COc1ccccc1Cn1cc([C@@H]2CN(C(=O)c3cccnc3)CCN2c2ccc(Cl)c(Cl)c2)nn1`: the inhibition entry was “Active”. For `O=C(O)c1ccc(-n2cc([C@@H]3CN(C(=O)c4cccnc4)CCN3c3ccc(Cl)c(Cl)c3)nn2)c(Cl)c1` the value was “Active”; for `O=C(c1cccnc1)N1CCN(c2ccc(Cl)c(Cl)c2)[C@H](c2cn(CCc3ccccc3)nn2)C1`, “Active”; for `O=C(Cn1cc([C@@H]2CN(C(=O)c3cccnc3)CCN2c2ccc(Cl)c(Cl)c2)nn1)NC1CC1`, “Active”. Under `CS(=O)(=O)c1ccc(Cn2cc([C@@H]3CN(C(=O)c4cccnc4)CCN3c3ccc(Cl)c(Cl)c3)nn2)cc1` stands “inactive”; under `O=C(c1cccnc1)N1CCN(c2ccc(Cl)c(Cl)c2)[C@H](c2cn(Cc3ccc(Cl)cc3)nn2)C1`, “Active”.

Consider `Cc1cn([C@H]2C[C@H](n3cc([C@@H]4CN(C(=O)c5cccnc5)CCN4c4ccc(Cl)c(Cl)c4)nn3)[C@@H](CO)O2)c(=O)[nH]c1=O`, for which the inhibition entry is “Active”. With `O=C(c1cccnc1)N1CCN(c2ccc(Cl)c(Cl)c2)[C@H](c2cn(Cc3ccc(F)c(Cl)c3)nn2)C1`, the inhibition result was “Active”. Under `O=C(c1cccnc1)N1CCN(c2ccc(Cl)c(Cl)c2)[C@H](c2cn(Cc3ccncc3)nn2)C1` stands “Active”; under `CCOC(=O)Cn1cc([C@@H]2CN(C(=O)c3cccnc3)CCN2c2ccc(Cl)c(Cl)c2)nn1`, “Active”.

`O=C(c1cccnc1)N1CCN(c2ccc(Cl)c(Cl)c2)[C@H](c2cn(Cc3cccc(F)c3)nn2)C1`: the inhibition result was “Active”.

As to `O=C(c1cccnc1)N1CCN(c2ccc(Cl)c(Cl)c2)[C@H](c2cn(Cc3ccc(F)cc3)nn2)C1`, the inhibition entry is “Active”. Under `O=C(c1cccnc1)N1CCN(c2ccc(Cl)c(Cl)c2)[C@H](c2cn(S(=O)(=O)n3ccnc3)nn2)C1` stands “Active”; under `N#Cc1ccc(Cn2cc([C@@H]3CN(C(=O)c4cccnc4)CCN3c3ccc(Cl)c(Cl)c3)nn2)cc1`, “Active”; under `N#Cc1ccccc1Cn1cc([C@@H]2CN(C(=O)c3cccnc3)CCN2c2ccc(Cl)c(Cl)c2)nn1`, “Active”. With `O=C(Cn1cc([C@@H]2CN(C(=O)c3cccnc3)CCN2c2ccc(Cl)c(Cl)c2)nn1)Nc1ccc(Br)cc1`, the inhibition entry is “inactive”. Under `NS(=O)(=O)c1ccc(Cn2cc([C@@H]3CN(C(=O)c4cccnc4)CCN3c3ccc(Cl)c(Cl)c3)nn2)cc1` stands “Active”; under `COC(=O)Cn1cc([C@@H]2CN(C(=O)c3cccnc3)CCN2c2ccc(Cl)c(Cl)c2)nn1`, “Active”. For `O=C(c1cccnc1)N1CCN(c2ccc(Cl)c(Cl)c2)[C@H](c2cn(CCN3C(=O)c4ccccc4C3=O)nn2)C1` the value was “Active”; for `O=C(c1cccnc1)N1CCN(c2ccc(Cl)c(Cl)c2)[C@H](c2cn(Cc3ccccc3Cl)nn2)C1`, “Active”; for `O=C(c1cccnc1)N1CCN(c2ccc(Cl)c(Cl)c2)[C@H](c2cn(Cc3ccc4ccccc4c3)nn2)C1`, “Active”.

With `O=C(c1cccnc1)N1CCN(c2ccc(Cl)c(Cl)c2)[C@H](c2cn(-c3cc4ccccc4s3)nn2)C1`, the inhibition result was “Active”. For `O=C(c1cccnc1)N1CCN(c2ccc(Cl)c(Cl)c2)[C@H](c2cn(Cc3ccc(C(F)(F)F)cc3)nn2)C1` the value was “inactive”; for `O=C(c1cccnc1)N1CCN(c2ccc(Cl)c(Cl)c2)[C@H](c2cn(CCc3ccsc3)nn2)C1`, “Active”; for `O=C(Cn1cc([C@@H]2CN(C(=O)c3cccnc3)CCN2c2ccc(Cl)c(Cl)c2)nn1)Nc1ccc(C(F)(F)F)cc1`, “inactive”. For `O=C(c1cccnc1)N1CCN(c2ccc(Cl)c(Cl)c2)[C@H](c2cn(Cc3ccc([N+](=O)[O-])cc3)nn2)C1` the value was “Active”. As for `O=C(c1cccnc1)N1CCN(c2ccc(Cl)c(Cl)c2)[C@H](c2cn(Cc3cccc([N+](=O)[O-])c3)nn2)C1`, the inhibition result was “Active”.

For the compound `COC(=O)CCCn1cc([C@@H]2CN(C(=O)c3cccnc3)CCN2c2ccc(Cl)c(Cl)c2)nn1`, the inhibition entry was “Active”. For `N#Cc1cccc(Cn2cc([C@@H]3CN(C(=O)c4cccnc4)CCN3c3ccc(Cl)c(Cl)c3)nn2)c1` the value was “Active”.

With `O=C(c1cccnc1)N1CCN(c2ccc(Cl)c(Cl)c2)[C@H](c2cn(Cc3ccc(B(O)O)cc3)nn2)C1`, the inhibition result is “inactive”. For `CS(=O)(=O)c1ccc(NC(=O)Cn2cc([C@@H]3CN(C(=O)c4cccnc4)CCN3c3ccc(Cl)c(Cl)c3)nn2)cc1` the value was “Active”; for `CCNC(=O)Cn1cc([C@@H]2CN(C(=O)c3cccnc3)CCN2c2ccc(Cl)c(Cl)c2)nn1`, “Active”. For `O=C(c1cccnc1)N1CCN(c2ccc(Cl)c(Cl)c2)[C@H](c2cn(-c3cccnc3)nn2)C1` the value was “Active”; for `O=C(c1cccnc1)N1CCN(c2ccc(Cl)c(Cl)c2)[C@H](c2cn(Cc3cccc(Cl)c3)nn2)C1`, “Active”; for `NC(=O)Cn1cc([C@@H]2CN(C(=O)c3cccnc3)CCN2c2ccc(Cl)c(Cl)c2)nn1`, “Active”. For `O=C(c1cccnc1)N1CCN(c2ccc(Cl)c(Cl)c2)[C@H](c2cn(-c3cnc4ccccc4c3)nn2)C1` the value was “Active”; for `NC(=O)c1ccc(-n2cc([C@@H]3CN(C(=O)c4cccnc4)CCN3c3ccc(Cl)c(Cl)c3)nn2)cc1`, “Active”; for `NC(=O)c1ccc(Cn2cc([C@@H]3CN(C(=O)c4cccnc4)CCN3c3ccc(Cl)c(Cl)c3)nn2)cc1`, “Active”. As for `CCOC(=O)c1ccc(Cn2cc([C@@H]3CN(C(=O)c4cccnc4)CCN3c3ccc(Cl)c(Cl)c3)nn2)cc1`, the inhibition result is “Active”. Under `O=C(c1cccnc1)N1CCN(c2ccc(Cl)c(Cl)c2)[C@H](c2cn(Cc3ccccc3[N+](=O)[O-])nn2)C1` stands “Active”; under `O=C(O)c1ccc(-n2cc([C@@H]3CN(C(=O)c4cccnc4)CCN3c3ccc(Cl)c(Cl)c3)nn2)cc1`, “Active”.

The values above are taken from ChEMBL document CHEMBL6134770, “Miniaturized click chemistry and direct screening facilitate the discovery of triazole piperazine SARS-CoV-2 Mpro inhibitors with improved metabolic stability” (RSC Med Chem, 2025).
